Test results taken from article PMC4414331 (The Prostate, 2012).

Target: prostate-specific membrane antigen (PSMA) (Homo sapiens, UniProt Q04609)
Test: purified PSMA, PABGgG hydrolysis by HPLC
Type: biochemical

prostate-specific membrane antigen (PSMA), sequence (Q04609 whole entry): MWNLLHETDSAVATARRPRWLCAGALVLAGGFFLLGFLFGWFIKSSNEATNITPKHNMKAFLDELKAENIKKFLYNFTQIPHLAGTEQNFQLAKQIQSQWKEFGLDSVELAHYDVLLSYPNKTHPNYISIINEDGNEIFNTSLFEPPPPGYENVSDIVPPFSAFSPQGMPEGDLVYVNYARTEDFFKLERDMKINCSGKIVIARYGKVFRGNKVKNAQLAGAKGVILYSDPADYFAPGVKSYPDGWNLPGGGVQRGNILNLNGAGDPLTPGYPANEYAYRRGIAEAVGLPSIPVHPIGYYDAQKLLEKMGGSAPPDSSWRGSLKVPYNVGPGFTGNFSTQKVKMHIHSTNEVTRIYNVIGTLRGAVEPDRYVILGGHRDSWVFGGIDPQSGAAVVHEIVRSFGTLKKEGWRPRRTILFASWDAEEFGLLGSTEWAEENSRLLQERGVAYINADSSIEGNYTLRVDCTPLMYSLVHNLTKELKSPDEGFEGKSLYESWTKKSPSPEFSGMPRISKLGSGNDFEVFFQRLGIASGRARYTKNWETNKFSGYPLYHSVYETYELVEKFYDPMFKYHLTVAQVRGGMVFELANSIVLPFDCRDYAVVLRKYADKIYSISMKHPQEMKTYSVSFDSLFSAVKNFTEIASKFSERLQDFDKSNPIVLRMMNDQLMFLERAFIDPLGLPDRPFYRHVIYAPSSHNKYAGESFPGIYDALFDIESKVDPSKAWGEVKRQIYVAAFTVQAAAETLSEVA

| Substance | IC50 |
| --- | --- |
| DBCO-PEG4-CTT-54.2 [compound 6] | 6.6 nM |
| DBCO-PEG4-CTT-54 [compound 5] | 1 nM |
